How the values were obtained:
in vitro = conditions: human, TOX HELA CC50 (μM)
rgRSV224 virus = assay: Antiviral activity: rgRSV224 (GFP) replication in HeLa cells; assay type: cell-based, respiratory syncytial virus (RSV); conditions: human respiratory syncytial virus, HeLa, 72 h, read-out: RSV HELA EC50 (μM), rgRSV224 virus (MOI=1), HeLa cells, GFP expression three days post-virus exposure

| Structure (SMILES) | CC50 at 3 days (in vitro) | EC50 (rgRSV224 virus) |
| --- | --- | --- |
| C[C@@H]1c2ccccc2CCN1C(=O)c1cc(-c2cncnc2)n2nc(-c3ccc(N4CC[C@H](C(N)=O)C4)cc3F)cc2n1 [Compound 64, (3S)-1-(3-Fluoro-4-{5-[(1R)-1-methyl-1,2,3,4-tetrahydroisoquinoline-2-carbonyl]-7-(pyrimidin-5-yl)pyrazolo[1,5-a]pyrimidin-2-yl}phenyl)pyrrolidine-3-carboxamide] | 8.9 µM | 0.029 µM |
| C[C@@H]1c2ccccc2CCN1C(=O)c1cc(C2CC2)n2nc(-c3ccc(N4CC[C@H](C(=O)NS(C)(=O)=O)C4)nc3F)cc2n1 [Compound 51, (3S)-1-(5-{7-Cyclopropyl-5-[(1R)-1-methyl-1,2,3,4-tetrahydroisoquinoline-2-carbonyl]-pyrazolo[1,5-a]pyrimidin-2-yl}-6-fluoropyridin-2-yl)-N-methanesulfonylpyrrolidine-3-carboxamide] | 67.9 µM | 0.131 µM |
| C[C@@H]1c2ccccc2CCN1C(=O)c1cc(C2CC2)n2nc(-c3ccc(N4CC[C@@H](OC(N)=O)C4)cc3F)cc2n1 [Compound 77, (3R)-1-(4-{7-Cyclopropyl-5-[(1R)-1-methyl-1,2,3,4-tetrahydroisoquinoline-2-carbonyl]pyrazolo[1,5-a]pyrimidin-2-yl}-3-fluorophenyl)pyrrolidin-3-yl carbamate] | > 100 µM | 0.082 µM |
| CNS(=O)(=O)C1CCN(c2ccc(-c3cc4nc(C(=O)N5CCc6ccccc6[C@H]5C)cc(C5CC5)n4n3)c(F)c2)C1 (stereo partly drawn) [Compound 21, 1-(4-{7-Cyclopropyl-5-[(1R)-1-methyl-1,2,3,4-tetrahydroisoquinoline-2-carbonyl]-pyrazolo[1,5-a]pyrimidin-2-yl}-3-fluorophenyl)-N-methylpyrrolidine-3-sulfonamide] | > 100 µM | 0.045 µM |
| C[C@@H]1c2ccccc2CCN1C(=O)c1cc(C2CC2)n2nc(-c3ccc(N4CC[C@H](N)C4)cc3F)cc2n1 [Compound 93, (2-(4-((S)-3-aminopyrrolidin-1-yl)-2-fluorophenyl)-7-cyclopropylpyrazolo[1,5-a]pyrimidin-5-yl)((R)-1-methyl-3,4-dihydroisoquinolin-2(1H)-yl)methanone] | 13.4 µM | 0.039 µM |
| C[C@@H]1c2ccsc2CCN1C(=O)c1cc(C2CC2)n2nc(-c3ccc(N4CC[C@H](C(=O)NS(C)(=O)=O)C4)cc3F)cc2n1 (single isomer, unassigned) [Compound 41, (3S)-1-(4-{7-Cyclopropyl-5-[(4*R)-4-methyl-4,5,6,7-tetrahydro-thieno[3,2-c]pyridine-5-carbonyl]pyrazolo[1,5-a]pyrimidin-2-yl}-3-fluorophenyl)-N-methanesulfonylpyrrolidine-3-carboxamide] | 51.1 µM | 0.036 µM |
| C[C@@H]1c2ccccc2CCN1C(=O)c1cc(C2CC2)n2nc(-c3ccc(N4CCC(O)(CO)C4)cc3F)cc2n1 (single isomer, unassigned) [Compound 103] | 35.8 µM | 0.019 µM |
| C[C@@H]1c2ccccc2CCN1C(=O)c1cc(C2CC2)n2nc(-c3ccc(N4C[C@H](O)[C@H](O)[C@H]4CO)cc3F)cc2n1 [Compound 98] | 47.6 µM | 0.039 µM |
| C[C@@H]1c2ccccc2CCN1C(=O)c1cc(C2CC2)n2nc(-c3ccc(N4CCCC(CC(N)=O)C4)cc3F)cc2n1 (stereo partly drawn) [Compound 71, 2-[1-(4-{7-Cyclopropyl-5-[(1R)-1-methyl-1,2,3,4-tetrahydroisoquinoline-2-carbonyl]-pyrazolo[1,5-a]pyrimidin-2-yl}-3-fluorophenyl)piperidin-3-yl]acetamide] | 29.8 µM | 0.105 µM |
| C[C@@H]1c2ccsc2CCN1C(=O)c1cc(C2CC2)n2nc(-c3ccc(N4CC[C@@](C)(CC(N)=O)C4)cc3F)cc2n1 (single isomer, unassigned) [Compound 26, 2-[(3*S)-1-(4-{7-Cyclopropyl-5-[(4*R)-4-methyl-4,5,6,7-tetrahydro-thieno[3,2-c]pyridine-5-carbonyl]pyrazolo[1,5-a]pyrimidin-2-yl}-3-fluorophenyl)-3-methylpyrrolidin-3-yl]acetamide] | 29.6 µM | 0.02 µM |
| C[C@@H]1c2ccsc2CCN1C(=O)c1cc(C2CC2)n2nc(-c3ccc(N4CC[C@](C)(CC(N)=O)C4)cc3F)cc2n1 (single isomer, unassigned) [Compound 25, 2-[(3*R)-1-(4-{7-Cyclopropyl-5-[(4*R)-4-methyl-4,5,6,7-tetrahydro-thieno[3,2-c]pyridine-5-carbonyl]pyrazolo[1,5-a]pyrimidin-2-yl}-3-fluorophenyl)-3-methylpyrrolidin-3-yl]acetamide] | 29.6 µM | 0.023 µM |
| C[C@@H]1c2ccccc2CCN1C(=O)c1cc(C2CC2)n2nc(-c3ccc(N4C[C@@H](O)[C@H](O)C4)cc3F)cc2n1 [Compound 100, (7-cyclopropyl-2-(4-((3R,4R)-3,4-dihydroxypyrrolidin-1-yl)-2-fluorophenyl)pyrazolo[1,5-a]pyrimidin-5-yl)((R)-1-methyl-3,4-dihydroisoquinolin-2(1H)-yl)methanone] | 23.8 µM | 0.011 µM |
| CNC(=O)C1CCCN(c2ccc(-c3cc4nc(C(=O)N5CCc6ccccc6[C@H]5C)cc(C5CC5)n4n3)c(F)c2)C1 (stereo partly drawn) [Compound 73, 1-(4-{7-Cyclopropyl-5-[(1R)-1-methyl-1,2,3,4-tetrahydroisoquinoline-2-carbonyl]-pyrazolo[1,5-a]pyrimidin-2-yl}-3-fluorophenyl)-N-methylpiperidine-3-carboxamide] | > 100 µM | 0.101 µM |
| Cc1ccc(-c2cc(C(=O)N3CCc4ccccc4[C@H]3C)nc3cc(-c4ccc(N5CC[C@H](C(N)=O)C5)cc4F)nn23)cc1 [Compound 58, (3S)-1-(3-Fluoro-4-{5-[(1R)-1-methyl-1,2,3,4-tetrahydroisoquinoline-2-carbonyl]-7-(4-methylphenyl)pyrazolo[1,5-a]pyrimidin-2-yl}phenyl)pyrrolidine-3-carboxamide] | > 100 µM | 0.036 µM |
| C[C@@H]1c2ccccc2CCN1C(=O)c1cc(C2CC2)n2nc(-c3ncc(N4CC[C@H](C(N)=O)C4)nc3F)cc2n1 [Compound 88, (3S)-1-(5-{7-Cyclopropyl-5-[(1R)-1-methyl-1,2,3,4-tetrahydroisoquinoline-2-carbonyl]-pyrazolo[1,5-a]pyrimidin-2-yl}-6-fluoropyrazin-2-yl)pyrrolidine-3-carboxamide] | 47.6 µM | 0.017 µM |
| C[C@@H]1c2ccccc2CCN1C(=O)c1cc(C2CC2)n2nc(-c3ccc(N4CC[C@@H](O)C4)cc3F)cc2n1 [Compound 13, (3R)-1-(4-{7-Cyclopropyl-5-[(1R)-1-methyl-1,2,3,4-tetrahydroisoquinoline-2-carbonyl]pyrazolo[1,5-a]pyrimidin-2-yl}-3-fluorophenyl)pyrrolidin-3-ol] | 80.5 µM | 0.058 µM |
| C[C@@H]1c2ccccc2CCN1C(=O)c1cc(-c2ccncc2)n2nc(-c3ccc(N4CC[C@H](C(N)=O)C4)cc3F)cc2n1 [Compound 63, (3S)-1-(3-Fluoro-4-{5-[(1R)-1-methyl-1,2,3,4-tetrahydroisoquinoline-2-carbonyl]-7-(pyridin-4-yl)pyrazolo[1,5-a]pyrimidin-2-yl}phenyl)pyrrolidine-3-carboxamide] | 27.2 µM | 0.011 µM |

Source: US11339165B2, “Pyrazolopyrimidines having activity against the respiratory syncytial virus (RSV)” (priority 2017, dated 2022)
